This passage reports IC50 results from patent US20070049593A1 (priority 2004, published 2007).

pIC50: −log10 of the molar value. Structures can show the parent of a compound that is named as a salt.

The assay concerns the target T1, HCV polymerase (Hepatitis C virus genotype 1b, UniProt P26663).
T1 construct: a region encoding NS5B (J Virol 1991 March, 65(3), 1105-13, 544 amino acids after deletion of 47 amino acids on the C-terminal); 6xHis (C); made in house; host or cells: Escherichia coli
Kind of assay: biochemical. The arrangement: species or system HCV BK strain. The essentials: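 Recombinant HCV BK-strain NS5B (C-terminal 47 aa deleted, His6-tagged, E. coli), 0.5 μg/ml, run with 5 μg/ml in vitro-transcribed RNA template (polyU/3′X), ATP/GTP/CTP 50 μM, UTP 2 μM plus [3H]UTP, pH 7.5, 25° C, 90 min. TCA-precipitated RNA counted by scintillation; IC50 from activity with vs without compound.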

T1 sequence (P26663 2420-2963): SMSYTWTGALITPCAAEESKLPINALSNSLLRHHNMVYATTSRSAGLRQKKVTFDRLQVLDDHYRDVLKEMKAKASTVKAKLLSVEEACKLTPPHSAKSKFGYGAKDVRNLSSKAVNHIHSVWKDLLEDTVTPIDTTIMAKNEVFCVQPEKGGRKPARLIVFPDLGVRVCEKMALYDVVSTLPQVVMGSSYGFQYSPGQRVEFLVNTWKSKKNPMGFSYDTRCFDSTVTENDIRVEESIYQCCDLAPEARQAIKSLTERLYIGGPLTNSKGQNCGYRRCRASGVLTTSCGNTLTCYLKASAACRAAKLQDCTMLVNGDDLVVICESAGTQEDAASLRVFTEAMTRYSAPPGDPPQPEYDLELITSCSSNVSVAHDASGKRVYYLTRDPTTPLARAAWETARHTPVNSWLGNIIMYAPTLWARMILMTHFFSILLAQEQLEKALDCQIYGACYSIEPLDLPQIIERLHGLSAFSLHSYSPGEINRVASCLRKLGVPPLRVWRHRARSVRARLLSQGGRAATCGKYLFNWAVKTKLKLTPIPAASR

The term pIC50 denotes the IC50 on a negative log10 scale, so that one unit is a factor of ten. Read a low pIC50 as a large IC50. For `CC(C)N(CCN1CCCCC1)c1cccc2c1OCCn1c-2c(C2CCCCC2)c2ccc(C(=O)O)cc21` [Example 2-161, 12-cyclohexyl-4-{N-isopropyl-N-[2-(piperidin-1-yl)ethyl]amino}-6,7-dihydro-5-oxa-7a-azadibenzo[a,e]azulene-9-carboxylic acid dihydrochloride], the negative logarithm of the IC50 (pIC50) was above 7.00.

For `CN(C)CCN(C)c1cccc2c1OCCn1c-2c(C2CCCCC2)c2ccc(C(=O)O)cc21` [Example 2-162, 12-cyclohexyl-4-[N-(2-dimethylaminoethyl)-N-methylamino]-6,7-dihydro-5-oxa-7a-azadibenzo[a,e]azulene-9-carboxylic acid dihydrochloride], the pIC50 is above 7.00.

`COCC(C)(NC(=O)c1ccc2c(C3CCCCC3)c3n(c2c1)CCOc1ccccc1-3)C(=O)Nc1ccc(/C=C/C(=O)O)cc1` (stereo not drawn) [Example 2-163, (E)-3-(4-{2-[(12-cyclohexyl-6,7-dihydro-5-oxa-7a-azadibenzo[a,e]azulene-9-carbonyl)amino]-3-methoxy-2-methylpropionylamino}phenyl)acrylic acid] gave a pIC50 above 7.00.

In turn, `O=C(NCCOCCO)c1ccc2c(C3CCCCC3)c3n(c2c1)CCOc1ccccc1-3` [Example 2-164, N-[2-(2-hydroxyethoxy)ethyl]-12-cyclohexyl-6,7-dihydro-5-oxa-7a-azadibenzo[a,e]azulene-9-carboxamide] showed a negative-log IC50 (pIC50) of 6.00 to 7.00.

Take `CC(C)(C)NC(=O)c1ccc2c(C3CCCCC3)c3n(c2c1)CCOc1ccccc1-3` [Example 2-165, N-tert-butyl-12-cyclohexyl-6,7-dihydro-5-oxa-7a-azadibenzo[a,e]azulene-9-carboxamide]: the pIC50 was 6.00 to 7.00.

For the compound `O=C(N[C@H]1CC[C@H](O)CC1)c1ccc2c(C3CCCCC3)c3n(c2c1)CCOc1ccccc1-3` [Example 2-166, N-(trans-4-hydroxycyclohexyl)-12-cyclohexyl-6,7-dihydro-5-oxa-7a-azadibenzo[a,e]azulene-9-carboxamide], the pIC50 was above 7.00.

In the case of `CC(C)(NC(=O)c1ccc2c(C3CCCCC3)c3n(c2c1)CCOc1ccccc1-3)c1nc(C(=O)O)cs1` [Example 2-167, 2-{1-[(12-cyclohexyl-6,7-dihydro-5-oxa-7a-azadibenzo[a,e]azulene-9-carbonyl)amino]-1-methylethyl}thiazole-4-carboxylic acid], the pIC50 is above 7.00.

With `CCN(CCN1CCCOCC1)c1cccc2c1OCCn1c-2c(C2CCCCC2)c2ccc(C(=O)O)cc21` [Example 2-168, 12-cyclohexyl-4-{N-ethyl-N-[2-(1,4-oxazepan-4-yl)ethyl]amino}-6,7-dihydro-5-oxa-7a-azadibenzo[a,e]azulene-9-carboxylic acid dihydrochloride], the pIC50 was above 7.00.

`CCN(CCCN1CCCCC1)c1cccc2c1OCCn1c-2c(C2CCCCC2)c2ccc(C(=O)O)cc21` [Example 2-169, 12-cyclohexyl-4-{N-ethyl-N-[3-(piperidin-1-yl)propyl]amino}-6,7-dihydro-5-oxa-7a-azadibenzo[a,e]azulene-9-carboxylic acid dihydrochloride] gave a pIC50 above 7.00.

`CCN(CCN1CCOCC1)c1cccc2c1OCCn1c-2c(C2CCCCC2)c2ccc(C(=O)O)cc21` [Example 2-170, 12-cyclohexyl-4-{N-ethyl-N-[2-(morpholin-4-yl)ethyl]amino}-6,7-dihydro-5-oxa-7a-azadibenzo[a,e]azulene-9-carboxylic acid dihydrochloride] had a pIC50 above 7.00.

Turning to `CC(C)(NC(=O)c1ccc2c(C3CCCCC3)c3n(c2c1)CCOc1ccccc1-3)c1ccc(CO)cc1` [Example 2-171, N-[1-(4-hydroxymethylphenyl)-1-methylethyl]-12-cyclohexyl-6,7-dihydro-5-oxa-7a-azadibenzo[a,e]azulene-9-carboxamide], the pIC50 is above 7.00.

`CCOC(=O)c1csc(C(C)(C)NC(=O)c2ccc3c(C4CCCCC4)c4n(c3c2)CCOc2ccccc2-4)n1` [Example 2-172, ethyl 2-{1-[(12-cyclohexyl-6,7-dihydro-5-oxa-7a-azadibenzo[a,e]azulene-9-carbonyl)amino]-1-methylethyl}thiazole-4-carboxylate]: the pIC50 is above 7.00.

`CNC(=O)c1ccc2c(C3CCCCC3)c3n(c2c1)CCOc1ccccc1-3` [Example 2-173, N-methyl-12-cyclohexyl-6,7-dihydro-5-oxa-7a-azadibenzo[a,e]azulene-9-carboxamide]: the pIC50 is above 7.00.

`O=C(O)/C=C/c1ccc(NC(=O)C2(NC(=O)c3ccc4c(C5CCCCC5)c5n(c4c3)CCOc3ccccc3-5)CCNCC2)cc1` [Example 2-174, (E)-3-[4-({4-[(12-cyclohexyl-6,7-dihydro-5-oxa-7a-azadibenzo[a,e]azulene-9-carbonyl)amino]piperidine-4-carbonyl}amino)phenyl]acrylic acid] showed a pIC50 above 7.00.

For the compound `COC(=O)[C@H](Cc1ccc(O)cc1)NC(=O)c1ccc2c(C3CCCCC3)c3n(c2c1)CCOc1ccccc1-3` [Example 2-175, methyl (S)-2-[(12-cyclohexyl-6,7-dihydro-5-oxa-7a-azadibenzo[a,e]azulene-9-carbonyl)amino]-3-(4-hydroxyphenyl)propionate], the pIC50 is above 7.00.

`CN(C)C(=O)CNc1cccc2c1OCCn1c-2c(C2CCCCC2)c2ccc(C(=O)O)cc21` [Example 2-176, 12-cyclohexyl-4-(dimethylcarbamoylmethylamino)-6,7-dihydro-5-oxa-7a-azadibenzo[a,e]azulene-9-carboxylic acid] had a pIC50 above 7.00.

As for `CC(C)(NC(=O)c1ccc2c(C3CCCCC3)c3n(c2c1)CCOc1ccccc1-3)C(=O)N[C@H]1CC[C@H](O)CC1` [Example 2-177, N-[1-(trans-4-hydroxycyclohexylcarbamoyl)-1-methylethyl]-12-cyclohexyl-6,7-dihydro-5-oxa-7a-azadibenzo[a,e]azulene-9-carboxamide], the pIC50 was above 7.00.

The compound `CCN(C(=O)CN1CCCCC1)c1cccc2c1OCCn1c-2c(C2CCCCC2)c2ccc(C(=O)O)cc21` [Example 2-178, 12-cyclohexyl-4-{N-ethyl-N-[2-(piperidin-1-yl)acetyl]amino}-6,7-dihydro-5-oxa-7a-azadibenzo[a,e]azulene-9-carboxylic acid monohydrochloride] showed a pIC50 above 7.00.

As for `O=C(Nc1ccc(OCc2ccccc2)cc1)c1ccc2c(C3CCCCC3)c3n(c2c1)CCOc1ccccc1-3` [Example 2-179, N-(4-benzyloxyphenyl)-12-cyclohexyl-6,7-dihydro-5-oxa-7a-azadibenzo[a,e]azulene-9-carboxamide], the pIC50 was 6.00 to 7.00.

With `O=C(N[C@@H](Cc1ccc(O)cc1)C(=O)O)c1ccc2c(C3CCCCC3)c3n(c2c1)CCOc1ccccc1-3` [Example 2-180, (S)-2-[(12-cyclohexyl-6,7-dihydro-5-oxa-7a-azadibenzo[a,e]azulene-9-carbonyl)amino]-3-(4-hydroxyphenyl)propionic acid], the pIC50 was above 7.00.

`CC(=O)N1CCC(NC(=O)c2ccc3c(C4CCCCC4)c4n(c3c2)CCOc2ccccc2-4)(C(=O)O)CC1` [Example 2-181, 1-acetyl-4-[(12-cyclohexyl-6,7-dihydro-5-oxa-7a-azadibenzo[a,e]azulene-9-carbonyl)amino]piperidine-4-carboxylic acid] had a pIC50 above 7.00.
